From patent US8106055B2, “Substituted amide compounds” (Gruenenthal GmbH, priority 2007, dated 2012)

Key:
human μ opiate receptor = target: T1, human μ opiate receptor (Homo sapiens, UniProt P35372); assay: Affinity for the human μ opiate receptor ([3H]-naloxone displacement, CHO-K1 receptor membrane preparation, SPA); format: binding; conditions: test concentration of 1 μM
T1 construct: purchased PerkinElmer Life Sciences, Zaventem, Belgium RB-HOM; host or cells: CHO-K1 cells (membrane preparation)
T1 sequence (P35372 whole entry): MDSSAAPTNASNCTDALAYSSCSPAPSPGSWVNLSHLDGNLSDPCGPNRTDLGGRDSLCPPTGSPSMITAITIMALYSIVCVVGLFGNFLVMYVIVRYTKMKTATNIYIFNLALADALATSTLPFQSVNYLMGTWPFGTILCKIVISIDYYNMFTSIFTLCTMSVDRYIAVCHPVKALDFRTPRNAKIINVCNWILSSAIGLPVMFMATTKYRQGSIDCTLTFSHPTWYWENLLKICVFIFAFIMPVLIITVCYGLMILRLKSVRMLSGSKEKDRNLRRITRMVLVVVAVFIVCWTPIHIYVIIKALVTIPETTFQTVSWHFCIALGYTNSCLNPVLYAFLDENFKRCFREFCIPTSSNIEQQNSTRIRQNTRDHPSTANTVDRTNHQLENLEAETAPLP
Procedure, shortened: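 Test compounds, 1 nmol/l [3H]-naloxone and CHO-K1 membranes bearing the human μ opiate receptor are combined with WGA-SPA beads. After 90 minutes at room temperature, plates are centrifuged and radioactivity counted. Specific-binding inhibition at 1 μmol/l is given in percent.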

[1] = target: T2, serotonin (5-HT) reuptake (Rattus norvegicus, UniProt P31652); assay: Inhibition of serotonin (5HT) reuptake in synaptosomes from rat brain; format: biochemical; conditions: test concentration of 10 μM
T2 construct: synaptosomes are freshly isolated from areas of the rat brain; from tissue; host or cells: rat brain synaptosomes (P2 fraction)
T2 sequence (P31652 whole entry): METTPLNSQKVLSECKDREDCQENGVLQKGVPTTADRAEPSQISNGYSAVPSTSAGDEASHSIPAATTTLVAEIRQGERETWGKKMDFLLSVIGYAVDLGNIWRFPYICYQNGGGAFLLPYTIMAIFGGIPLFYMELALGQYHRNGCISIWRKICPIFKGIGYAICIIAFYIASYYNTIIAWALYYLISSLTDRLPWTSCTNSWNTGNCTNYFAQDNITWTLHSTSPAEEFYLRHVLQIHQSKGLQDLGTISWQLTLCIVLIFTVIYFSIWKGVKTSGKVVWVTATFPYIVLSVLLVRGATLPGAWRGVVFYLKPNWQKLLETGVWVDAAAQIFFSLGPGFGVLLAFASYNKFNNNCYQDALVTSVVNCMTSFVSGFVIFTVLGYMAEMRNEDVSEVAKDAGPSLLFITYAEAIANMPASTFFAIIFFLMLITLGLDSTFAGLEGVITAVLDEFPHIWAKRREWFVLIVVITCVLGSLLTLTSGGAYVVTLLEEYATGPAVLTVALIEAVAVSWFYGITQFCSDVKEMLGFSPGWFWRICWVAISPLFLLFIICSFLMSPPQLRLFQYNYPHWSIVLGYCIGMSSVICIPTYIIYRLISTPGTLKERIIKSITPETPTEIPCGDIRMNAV
Procedure, shortened: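 Compounds screened at 10 μM and reported as percent inhibition of serotonin uptake. Uptake measured in a freshly prepared P2 synaptosomal fraction from rat brain.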

COc1cc(C)c(S(=O)(=O)N2CCCC(OCC(=O)NCC3CCC(C(c4ccc(F)cc4)N(C)C)CC3)C2)c(C)c1C (centres unmarked) [Example 418]
μ (binding on the μ opioid receptor, % inhibition) (human μ opiate receptor): 51% | 5-HT (inhibition of reuptake of serotonin, % inhibition) [1]: 98%

COc1cc(C)c(S(=O)(=O)N(CCOCC(=O)NCC2CCC(C(c3cccc(F)c3)N(C)C)CC2)Cc2ccccc2)c(C)c1C (centres unmarked) [Example 414]
μ (binding on the μ opioid receptor, % inhibition) (human μ opiate receptor): 64% | 5-HT (inhibition of reuptake of serotonin, % inhibition) [1]: 67%

CN(C)C(c1ccc(Cl)cc1)C1CCC(CCNC(=O)COCC2CCCN(S(=O)(=O)c3ccccc3)C2)CC1 (centres unmarked) [Example 425]
μ (binding on the μ opioid receptor, % inhibition) (human μ opiate receptor): 48% | 5-HT (inhibition of reuptake of serotonin, % inhibition) [1]: 97%

COc1ccc(S(=O)(=O)N2CCCCC2CCOCC(=O)NCCC2CCC(C(c3ccc(F)cc3)N(C)C)CC2)cc1 (centres unmarked) [Example 398]
μ (binding on the μ opioid receptor, % inhibition) (human μ opiate receptor): 59% | 5-HT (inhibition of reuptake of serotonin, % inhibition) [1]: 97%

COc1cc(C)c(S(=O)(=O)N2CCC(OCC(=O)NCC3CCC(C(c4ccc(Cl)cc4)N(C)C)CC3)C2)c(C)c1C (centres unmarked) [Example 428]
μ (binding on the μ opioid receptor, % inhibition) (human μ opiate receptor): 49% | 5-HT (inhibition of reuptake of serotonin, % inhibition) [1]: 88%

COc1cc(C)c(S(=O)(=O)N(CCOCC(=O)NCCC2CCC(C(c3cccc(F)c3)N(C)C)CC2)Cc2ccccc2)c(C)c1C (centres unmarked) [Example 436]
μ (binding on the μ opioid receptor, % inhibition) (human μ opiate receptor): 57% | 5-HT (inhibition of reuptake of serotonin, % inhibition) [1]: 88%

CN(C)C(c1ccc(Cl)cc1)C1CCC(CCNC(=O)COCCN(C)S(=O)(=O)c2c(Cl)cc(Cl)cc2Cl)CC1 (centres unmarked) [Example 442]
μ (binding on the μ opioid receptor, % inhibition) (human μ opiate receptor): 54% | 5-HT (inhibition of reuptake of serotonin, % inhibition) [1]: 91%

COc1ccc(S(=O)(=O)N2CCC(OCC(=O)NCCC3CCC(C(c4ccc(F)cc4)N(C)C)CC3)C2)cc1OC (centres unmarked) [Example 430]
μ (binding on the μ opioid receptor, % inhibition) (human μ opiate receptor): 56% | 5-HT (inhibition of reuptake of serotonin, % inhibition) [1]: 92%

CN(C)C(c1ccc(Cl)cc1)C1CCC(CCNC(=O)COC2CCN(S(=O)(=O)c3ccccc3)C2)CC1 (centres unmarked) [Example 375]
μ (binding on the μ opioid receptor, % inhibition) (human μ opiate receptor): 53% | 5-HT (inhibition of reuptake of serotonin, % inhibition) [1]: 88%

CN(C)C(c1cccc(F)c1)C1CCC(CCNC(=O)COC2CCN(S(=O)(=O)c3ccc(F)cc3)C2)CC1 (centres unmarked) [Example 407]
μ (binding on the μ opioid receptor, % inhibition) (human μ opiate receptor): 54% | 5-HT (inhibition of reuptake of serotonin, % inhibition) [1]: 95%

CN(C)C(c1ccc(F)cc1)C1CCC(CNC(=O)COCCN(C)S(=O)(=O)c2cccc(C(F)(F)F)c2)CC1 (centres unmarked) [Example 390]
μ (binding on the μ opioid receptor, % inhibition) (human μ opiate receptor): 55% | 5-HT (inhibition of reuptake of serotonin, % inhibition) [1]: 90%

CN(C)C(c1ccc(Cl)cc1)C1CCC(CCNC(=O)COC2CCN(S(=O)(=O)c3ccccc3)CC2)CC1 (centres unmarked) [Example 443]
μ (binding on the μ opioid receptor, % inhibition) (human μ opiate receptor): 45% | 5-HT (inhibition of reuptake of serotonin, % inhibition) [1]: 96%

COc1cc(C)c(S(=O)(=O)N2CCC(OCC(=O)NCC3CCC(C(c4ccc(F)cc4)N(C)C)CC3)C2)c(C)c1C (centres unmarked) [Example 427]
μ (binding on the μ opioid receptor, % inhibition) (human μ opiate receptor): 50% | 5-HT (inhibition of reuptake of serotonin, % inhibition) [1]: 94%

COc1cc(C)c(S(=O)(=O)N2CCN(CCOCC(=O)NCC3CCC(C(c4ccc(Cl)cc4)N(C)C)CC3)CC2)c(C)c1C (centres unmarked) [Example 429]
μ (binding on the μ opioid receptor, % inhibition) (human μ opiate receptor): 54% | 5-HT (inhibition of reuptake of serotonin, % inhibition) [1]: 95%

CN(C)C(c1ccc(F)cc1)C1CCC(CNC(=O)COCC2CCCN(S(=O)(=O)c3ccccc3)C2)CC1 (centres unmarked) [Example 424]
μ (binding on the μ opioid receptor, % inhibition) (human μ opiate receptor): 39% | 5-HT (inhibition of reuptake of serotonin, % inhibition) [1]: 96%

CN(C)C(c1ccc(F)cc1)C1CCC(NC(=O)COC2CCN(S(=O)(=O)c3ccc(F)cc3)C2)CC1 (centres unmarked) [Example 381]
μ (binding on the μ opioid receptor, % inhibition) (human μ opiate receptor): 54% | 5-HT (inhibition of reuptake of serotonin, % inhibition) [1]: 79%

Cc1cc(C)c(S(=O)(=O)N(C)CCOCC(=O)NCCC2CCC(C(c3ccc(Cl)cc3)N(C)C)CC2)c(C)c1 (centres unmarked) [Example 416]
μ (binding on the μ opioid receptor, % inhibition) (human μ opiate receptor): 53% | 5-HT (inhibition of reuptake of serotonin, % inhibition) [1]: 103%

CN(C)C(c1ccc(Cl)cc1)C1CCC(CNC(=O)COCCN(C)S(=O)(=O)c2ccc(OC(F)(F)F)cc2)CC1 (centres unmarked) [Example 411]
μ (binding on the μ opioid receptor, % inhibition) (human μ opiate receptor): 60% | 5-HT (inhibition of reuptake of serotonin, % inhibition) [1]: 91%

CN(C)C(c1ccc(F)cc1)C1CCC(CCNC(=O)COCCN(C)S(=O)(=O)c2ccc(OC(F)(F)F)cc2)CC1 (centres unmarked) [Example 446]
μ (binding on the μ opioid receptor, % inhibition) (human μ opiate receptor): 51% | 5-HT (inhibition of reuptake of serotonin, % inhibition) [1]: 90%
